Assays:
[1] = test system: cardiac action potentials; assay: Canine cardiac action potentials by electrocardiography and telemetry; assay type: in vivo; conditions: dogs, oral gavage, post-dose period 1-6 hours, vs vehicle
Description: Anesthesia is introduced to dogs. Balanced gaseous anesthesia is used throughout the surgical procedure. Once anesthetized, animals are shaved and surgically scrubbed, encompassing surgical sites of the right inguinal area, chest and right lateral abdomen. Throughout the surgical procedure, animals are monitored for continuous assessment of vital signs. An incision is made along the right medial thigh and the femoral artery exposed by blunt dissection. Another incision is made in the lateral lumbar area cranial to the iliac crest for a tunneling needle to be passed subcutaneously from the incision on the medial thigh to the lumbar incision. A blood pressure catheter is passed through the needle from the lumbar incision and the needle removed. The femoral artery is ligated distally and incised to insert a catheter that is advanced until the tip resided in the femoral artery/abdominal aorta. The catheter is then secured by ligation. The incision in the lumbar area is enlarged and a subcutaneous pocket created in the left dorsal lumbar area to hold the transmitter body. The transmitter (e.g., Data Sciences International, St Paul, Minn., USA) is inserted into the subcutaneous pocket and secured body. Electrocardiography (ECG) leads are positioned. The incision is closed. Postoperative recovery lasts, e.g., about 2 weeks during which supplemental analgesics/antibiotics are administered as needed. Once the postoperative recovery period is complete, the animal is examined for study acceptability by the staff veterinarian and the implanted transmitter signal verified. […] ECGs, heart rate and arterial blood pressure data are recorded 1 hour prior to and then continuously for at least 6 hours following compound and/or vehicle administration. A blood sample for determination of compound plasma concentrations is collected from all subjects at approximately 6 h post-dose. […] Standard ECG intervals (PR, RR, QRS and QT) are automatically measured by the data acquisition system and reported as, e.g., 10 min averages. […] Dose-level averages (and accompanying standard deviation (s.d.) of these baseline-adjusted 10 min averages are calculated across study animals. ANOVA (e.g., repeated measures ANOVA) are applied to these baseline-adjusted averages. Pairwise t-tests are applied within the ANOVA to identify the presence of significant differences of the dose levels relative to vehicle. These t-tests are performed at a 0.05/2=0.025 significance level, so that the overall error rate across the comparisons in a given interval are not higher than 0.05. ECG interval data (reported at 30 min intervals) are analyzed using, e.g., repeated-measures ANOVA techniques similar to the systemic blood pressure and heart rate data described above.

[2] = Peripheral restriction
[3] = test system: gastric emptying; assay: Gastric emptying in rodents, metopimazine; assay type: in vivo; conditions: preliminary
[4] = test system: gastric motility; assay: Antral manometry in canines (gastric motility); assay type: in vivo; conditions: for motor dysfunction: canines
Method: Two healthy female hound dogs (24-28 kg) were involved in this study. Animals were fed an ad libitum chow diet (LabDiet®). After an overnight fast, the dogs were anesthetized with Pentothal (sodium thiopental, 11 mg/kg IV; Abbott Laboratories, North Chicago, Ill.) and maintained on 2-4% isoflurane (Abbott Laboratories) in oxygen (1 L/min) carrier gases delivered from a ventilator after endotracheal intubation. A cannula was placed in the jejunum 20 cm distal to the pylorus for the assessment of antral motility. Dogs were allowed to recover in their individual cages for 2 weeks. All experiments were performed after the dogs were completed recovered from the surgical procedure. The study was performed according to the National Institutes of Health Guidelines on the use of laboratory animals and approved by the Animal Care and Use Committee of the University of Texas Medical Branch at Galveston, Tex. To investigate the effect of the drugs on antral manometry, the study of each drug dose was done on three randomized sessions on separate days following the consumption of one can of solid dog food: 1) a Control session: In which animals received the vehicle only; 2) Dose I session: in which the lower dose of the drug was used; and 3) Dose II session: in which the higher dose of the drug was used (please refer to table for drug doses). Drug administration was performed according to Table 4, below. [table] Antral manometry was performed as follows. Following an overnight fast, an intraluminal water-perfused manometry catheter was inserted into the antrum through the jejunal cannula. Antral manometry recording was initiated after the consumption of one can of solid food and continued for 3 hours. The catheter contained 3 manometric sensors at a 1 cm interval. Dogs were given 10 minutes of accommodation, prior to the start of the recording. For data analysis, motility index (MI), defined as the integrated area (area under curve—AUC) between baseline and contractions per hour, was calculated. For statistical analysis, the Student's t-test was used for assessment of individual differences between groups (High dose, low dose of each drug) compared to control—Microsoft® Excel 2002). All values are expressed as mean±SEM.

[5] = test system: solid gastric emptying; assay: Solid gastric emptying in rats, S-carbidopa; assay type: in vivo, Sprague-Dawley rats; conditions: 1 mg/kg, initial results
Method: Male Sprague-Dawley rats, purchased from the Charles River Lab, were housed in the animal facility of Veterans Research Education Foundation, which was maintained at 22˜24° C., 55% relative humidity, with an automatic 12 h light/dark cycle. The animals received a standard laboratory rat chow and tap water ad libitum. The rats were around 400 g at 14 weeks age when used in gastric emptying study.
S-Carbidopa was purchased from Sigma (#: C1335). Stock solution of S-Carbidopa was prepared at 5 mg/ml using DMSO as solvent. 80 μl stock solution was further diluted into 1 ml distilled water to make 0.4 mg/ml. The effect of S-Carbidopa (1 mg/kg) on solid gastric emptying was studied.
Male SD rats were involved in this study. Rats were fasted in cages with metal wired mesh for 24 hours with free access to water; S-carbidopa (1 mg/kg) was administered to the rats by oral gavage. Control rats were not administered S-carbidopa. 15 minutes following administration, rats were given access to 2 g of rat chow pellets for ten minutes. All rats completely ingested the chow within the 10 minute time frame. Rats were sacrificed by sodium pentobarbital (100 mg/kg) overdose 90 min after feeding. […] Solid gastric emptying was calculated according to the following formula: Gastric emptying (%)=[1−(dried gastric content in g)/2 g]×100. All values are expressed as mean±SEM. […]

With `CS(=O)(=O)c1ccc2c(c1)N(CCCN1CCC(C(=O)O)CC1)c1ccccc1S2` [Metopimazine acid] the QTc intervals [1] was “no significant increases” and the peripheral restriction [2] was “peripherally restricted agents”.
With `CS(=O)(=O)c1ccc2c(c1)N(CCCN1CCC(C(N)=O)CC1)c1ccccc1S2` [Metopimazine, 1-[3-[2-(methylsulfonyl)-10H-phenothiazin-10-yl]propyl]-piperidine-4-carboxamide] the QTc intervals [1] was “no significant increases”, the “increase in gastric emptying as compared to vehicle control” value ([3]; 3 mg/kg) was “about 40%” and the “increase in gastric emptying as compared to vehicle control, overall effect” value ([3]; pooling the 3 mg/kg and 10 mg/kg doses) was “about 20%”. For the same compound, the peripheral restriction [2] was “peripherally restricted agents” and the motor dysfunction [4] was “no motor dysfunction was observed”.
For `CN(CCOc1ccc(NS(C)(=O)=O)cc1)CCc1ccc(NS(C)(=O)=O)cc1` [dofetilide], the QTc intervals [1] was “increased”.
For `C[C@@](Cc1ccc(O)c(O)c1)(NN)C(=O)O` [S-Carbidopa, (2S)-3-(3,4-dihydroxyphenyl)-2-hydrazino-2-methylpropanoic acid], the QTc intervals [1] was “no significant increases”, the “solid gastric emptying compared to control rats” value [5] was “improves solid gastric emptying” and the “motility index (MI)” value ([4]; 1 mg/kg IV, 15 min prior to meal, all three channels, p=0.05) was “robustly increased MI”. For the same compound, the motor dysfunction [4] was “no motor dysfunction was observed”.
For `Cl.NCCc1ccc(O)c(O)c1` [dopamine hydrochloride], the “motility index (MI)” value ([4]; 50 mg/canine IV, immediately before meal, all channels, p=0.06) was “decreased MI”.

— patent US11147820B2, “Methods for treating GI tract disorders” (Neurogastrx, Inc., priority 2012, dated 2021)
